Measured values as given in patent publication US4582821A, “Inhibition of cyclic nucleotide independent protein kinases” (E. I. Du Pont de Nemours and Company, priority 1983, dated 1986).

Experiments:
[1] = target: T1, A-431 cell EGF receptor (Homo sapiens, UniProt P00533); assay: Protein phosphorylation of A-431 cell membrane EGF receptors (intact membranes, EGF present); type: biochemical; details: 600 nmoles/mg protein, intact A-431 membranes
T1 construct: intact A-431 cell membranes were employed, rather than solubilized extracts; endogenous in cells; host or cells: A-431 human epidermoid carcinoma cells (plasma membranes)
T1 sequence (P00533 25-1210): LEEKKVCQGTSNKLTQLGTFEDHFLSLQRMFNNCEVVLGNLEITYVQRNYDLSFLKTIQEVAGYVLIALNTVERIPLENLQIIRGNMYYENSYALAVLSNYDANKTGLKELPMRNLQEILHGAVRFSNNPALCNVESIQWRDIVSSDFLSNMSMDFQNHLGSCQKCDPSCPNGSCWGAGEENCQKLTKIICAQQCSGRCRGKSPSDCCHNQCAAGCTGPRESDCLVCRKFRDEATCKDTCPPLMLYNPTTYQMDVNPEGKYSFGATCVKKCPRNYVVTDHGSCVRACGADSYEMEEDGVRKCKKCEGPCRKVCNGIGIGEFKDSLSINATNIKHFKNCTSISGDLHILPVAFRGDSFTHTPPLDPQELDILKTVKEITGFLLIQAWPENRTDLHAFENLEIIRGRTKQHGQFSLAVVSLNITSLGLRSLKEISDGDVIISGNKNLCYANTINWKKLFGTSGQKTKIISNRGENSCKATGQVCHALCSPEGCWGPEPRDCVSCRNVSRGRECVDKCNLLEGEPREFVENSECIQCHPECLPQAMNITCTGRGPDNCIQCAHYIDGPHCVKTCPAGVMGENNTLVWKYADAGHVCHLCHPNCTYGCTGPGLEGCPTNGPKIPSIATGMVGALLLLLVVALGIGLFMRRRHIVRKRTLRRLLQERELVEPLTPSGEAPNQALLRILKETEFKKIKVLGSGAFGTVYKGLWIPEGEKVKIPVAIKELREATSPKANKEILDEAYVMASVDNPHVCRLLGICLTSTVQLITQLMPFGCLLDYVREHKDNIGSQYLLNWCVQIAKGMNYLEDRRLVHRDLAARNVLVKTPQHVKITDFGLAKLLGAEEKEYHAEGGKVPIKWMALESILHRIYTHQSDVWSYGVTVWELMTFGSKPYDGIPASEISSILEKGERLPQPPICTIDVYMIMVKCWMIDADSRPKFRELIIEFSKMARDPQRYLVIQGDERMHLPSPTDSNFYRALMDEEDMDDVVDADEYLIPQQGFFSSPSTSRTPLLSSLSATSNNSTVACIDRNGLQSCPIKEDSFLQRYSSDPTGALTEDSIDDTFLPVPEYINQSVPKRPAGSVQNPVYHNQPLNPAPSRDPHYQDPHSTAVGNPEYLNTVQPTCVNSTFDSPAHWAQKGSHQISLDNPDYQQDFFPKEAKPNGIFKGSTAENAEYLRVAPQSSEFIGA
Description: (§1) Protein phosphorylation assays were conducted substantially as described by Carpenter et al., J. Biol. Chem. 254:4884 (1979). Each assay mixture contained, in a final volume of 70 μL: 20 mM Hepes, pH 7.4, 0.01% bovine serum albumin (BSA), 15-150 μg protein in Triton extract, 100 ng EGF, 1 mM MnCl2 and 10-20 μM [γ-^32 P] ATP (2-4 μCi). Peptide halomethyl ketones were added as solutions in ethanol; an equivalent volume of ethanol was added to controls. Assay mixtures were incubated at about 23° for ten minutes, with or without added EGF. Mixtures were then held at 0° for ten minutes before initiation of phosphorylation by addition of 15 μM γ-^32 P) ATP (2 μCi). Reactions were terminated after 3 minutes at 0° by applying an aliquot of the assay mixture to a Whatman 3MM filter paper (2×2 cm), which was then suspended in ice-cold 10% trichloroacetic acid containing 10 mM pyrophosphate. This suspension was gently shaken for a period of 1 hour, during which the trichloroacetic acid/pyrophosphate mixture was changed three times. Finally, the filter papers were dried and radioactivity measured by scintillation counting.
Assays were conducted substantially as described above, except intact A-431 cell membranes were employed, rather than solubilized extracts, and assay mixtures contained 1 mM ouabain. In these Examples, reactions were permitted to proceed for 6 minutes. This technique is substantially similar to that disclosed by Navarro et al., Biochemistry, 21:6138 (1982).

[2] = tested on: A-431 plasma membrane extracts (EGF-mediated protein phosphorylation); assay: Protein phosphorylation in solubilized A-431 plasma membrane extracts, with or without EGF; type: biochemical, human
Description: The capacity of certain peptide halomethyl ketones to inhibit protein phosphorylation is illustrated by Examples 1-8, below, in which solubilized plasma membranes prepared from A-431 human epidermoid carcinoma cells were incubated with [γ-^32 P] ATP in the presence of EGF.
A-431 human epidermoid carcinoma cells were grown in Dulbecco's modified Eagle's medium containing 5% fetal calf serum. Plasma membranes were isolated by a method substantially similar to that described by Thom et al., Biochem J. 168:187 (1977), and kept at -70°. Solubilization of plasma membranes was performed substantially as described by Cohen et al., J. Biol. Chem. 255:4834 (1980). In this procedure, 7.5 mg/mL protein was solubilized with 5% Triton X-100 (octylphenol), 10% glycerol, and 20 mM Hepes buffer (N-2-hydroxyethylpiperazine-N^1 -2-ethanesulfonic acid), pH 7.4. This mixture was incubated for 20 minutes at about 23°, followed by centrifugation at 100,000 xg for 60 minutes.
as §1

[3] = tested on: EGF-mediated tyrosine phosphorylation in Triton extracts of A-431 cell membranes; assay: Phosphoamino acid analysis of labeled Triton extracts of A-431 cell membranes; type: biochemical, human; details: for Total Phosphoprotein / P-serine radioactivity / P-threonine radioactivity / P-tyrosine radioactivity: 349 nmoles/mg protein; for Total Phosphoprotein: 1/7 aliquot
Description: Triton extracts of A-431 cell membranes, prepared substantially as described previously, containing 37.5 μg protein, were labeled with [γ-^32 P] ATP (5 μM, 5 μCi) for 3 minutes at 0° in the presence and absence of Boc-LeuCH2 Br (349 nmoles/mg protein). Protein samples were hydrolyzed and phosphoamino acids were separated by the following procedure.
After labeling, membrane proteins were treated with 10% trichloroacetic acid (TCA) containing 10 mM sodium pyrophosphate and 100 μg BSA. After incubation for one hour at 0°, the foregoing mixture was centrifuged at 3,000 rpm and the resulting pellet washed 3 times with 10% TCA/10 mM sodium pyrophosphate. After recentrifugation, the final pellet was washed with ethanol, dried under vacuum, and dissolved in 70 μL of 0.1N NaOH prior to transfer to glass test tubes containing 0.5 mL 6N hydrochloric acid. The tubes were sealed under vacuum and samples were hydrolyzed at 100° for one hour. The resulting hydrolysates were lyophilized, resuspended in 30 μL water and electrophoresed on Whatman 3MM paper for 3 hours at 3,000 V, at pH 3.5 in 5% acetic acid/0.5% pyridine. Phosphotyrosine, phosphoserine, and phosphothreonine (10 μg of each) were employed as markers. Following electrophoresis, spots corresponding to the foregoing phosphoamino acids were located by ninhydrin treatment, excised, and bleached with 6% hydrogen peroxide. Radioactivity of the spots was determined by scintillation counting and expressed as cpm. Total phosphoprotein of a 1/7 aliquot of each reaction mixture was determined as previously described.

[4] = tested on: erythroleukemia cell line K-562; assay: Tumor cell line growth inhibition, K-562; type: cell-based
Description: In this series of experiments, the tumor cell growth inhibitory capacity of various peptide halomethyl ketones was tested against lymphoma cell lines YAC-1 and MOLT-4, and against an erythroleukemia cell line, K-562. The lymphoma cell line YAC-1 is described by Kiessling, et al., Eur. J. Immunol. 5:112 (1975), and MOLT-4 is described by Minowada, et al., J. Natl. Cancer Inst. 49:891 (1972) and Nilsson, et al., Int. J. Cancer 15:321 (1975). The erythroleukemia cell line K-562 is described by Lozzio, et al., Leuk. Res. 3:363 (1979). In these experiments, cells were grown on standard media as 10 mL suspension cultures. Initial cell density was 10^5 cells/mL. At day 0, test compounds were introduced in ethanol; control cultures received an equal volume of ethanol. Cells were counted at the times indicated.

SMILES: CC(C)CC(NC(=O)OC(C)(C)C)C(=O)CBr (stereo not drawn) [Boc-LeuCH2 Br]
- % inhibition [1]: 29%
- % inhibition, EGF Added ([2]; 400 nmol/mg protein): 65%
- EGF Added (pmol 32P incorporated/min/mg protein) ([2]; 400 nmol/mg protein, control 20.2): 7.0 pmol^32 P incorporated/min/mg
- % inhibition, EGF Added ([2]; 477 nmol/mg protein): 72%
- EGF Added (pmol 32P incorporated/min/mg protein) ([2]; 477 nmol/mg protein, control 96.2): 27.4 pmol^32 P incorporated/min/mg
- % inhibition, No EGF Added ([2]; 400 nmol/mg protein): 69%
- No EGF Added (pmol 32P incorporated/min/mg protein) ([2]; 400 nmol/mg protein, control 7.3): 2.3 pmol^32 P incorporated/min/mg
- % inhibition, No EGF Added ([2]; 477 nmol/mg protein): 74%
- No EGF Added (pmol 32P incorporated/min/mg protein) ([2]; 477 nmol/mg protein, control 21.6): 5.6 pmol^32 P incorporated/min/mg
- Total Phosphoprotein ([3]; EGF absent, control 3408): 2024 cpm
- P-serine radioactivity ([3]; EGF absent, control 328): 300 cpm
- P-threonine radioactivity ([3]; EGF absent, control 1100): 1180 cpm
- P-tyrosine radioactivity ([3]; EGF absent, control 1152): 488 cpm
- Total Phosphoprotein ([3]; EGF present, control 12204): 5332 cpm
- P-serine radioactivity ([3]; EGF present, control 494): 262 cpm
- P-threonine radioactivity ([3]; EGF present, control 1994): 1270 cpm
- P-tyrosine radioactivity ([3]; EGF present, control 18000): 5554 cpm
- inhibition of tyrosine phosphorylation (in words) ([3]; both the presence and absence of EGF): pronounced inhibition of tyrosine phosphorylation
- % Growth Relative to Control Cultures ([4]; 0.4 μg/mL, day 3): 70%
- % Growth Relative to Control Cultures ([4]; 0.4 μg/mL, day 7): 85%
- % Growth Relative to Control Cultures ([4]; 2.0 μg/mL, day 1): 53%
- % Growth Relative to Control Cultures ([4]; 2.0 μg/mL, day 2): 22%
- % Growth Relative to Control Cultures ([4]; 2.0 μg/mL, day 3): 19%
- % Growth Relative to Control Cultures ([4]; 2.0 μg/mL, day 4): 16%
- % Growth Relative to Control Cultures ([4]; 2.0 μg/mL, day 7): 69%
- % Growth Relative to Control Cultures ([4]; 10. μg/mL, day 1): 33%
- % Growth Relative to Control Cultures ([4]; 10. μg/mL, day 2): 22%
- % Growth Relative to Control Cultures ([4]; 10. μg/mL, day 3): 7%
- % Growth Relative to Control Cultures ([4]; 10. μg/mL, day 4): 17%
- % Growth Relative to Control Cultures ([4]; 10. μg/mL, day 7): 13%
